Results on two compounds are retold here after patent publication US20250276007A1, “CARBAMOYLPHENYLBORONIC ACID-CONTAINING ACRYLIC MONOMERS AND USES THEREOF” (Alcon Inc., priority 2024, published 2025).

Like-named read-outs stand apart in the source and are kept apart here.

A short description of this series: pKa of boronic acid monomer. The series is classed as physicochemical. The following applies: monomer forming the repeating units of the copolymer.

For `C=CC(=O)Nc1cccc(B(O)O)c1` [APBA, 3-(acrylamido)phenylboronic acid], the pKa (read-out: pKa) was approximately 8.1.

Turning to `C=CC(=O)NCCNC(=O)c1ccc(B(O)O)cc1Cl` [CPBA], the pKa result is given as “about 7.2”.

Usually pKa stands for the negative logarithm of the acid dissociation constant.
